# Assay results published in patent US20240228555A9, “ANTIMICROBIAL PEPTIDOMIMETICS” (Basilea Pharmaceutica International AG, Allschwil, priority 2020, published 2024).
# Where a SMILES comes first, the peptide text is derived from it.
# Assays:
# [1] = system: human red blood cells (hRBC); format: cell-based; conditions: red cells of human, 1 h, 0.2 g/L
# Method in brief: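 PBS-washed human erythrocytes (20% v/v) were incubated with compounds at 200 μg/mL for 1 h at 37° C with shaking. Supernatant OD540 was read after 8-fold dilution; hemolysis % = OD540 peptide / OD540 of the 100% lysis control (2.5% Triton X-100 in H2O) ×100, with PBS as 0%.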
# [2] = system: Escherichia coli MCR-1 Af 45; conditions: Mueller-Hinton broth II, no visible growth after 18-20 hours at 35° C.
# Method in brief: (§1)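 Two-fold serial dilutions of peptide, in water with polysorbate 80 (0.002% final), met bacteria adjusted to 0.5 McFarland then diluted to about 5×10^5 CFU/mL. Medium was cation-adjusted Mueller-Hinton II broth; peptide stocks were 1 mg/mL in sterile water.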
# [3] = system: Klebsiella pneumoniae SSI3010; conditions: SSI3010
# Method in brief: as §1
# [4] = system: Escherichia coli ATCC 25922; conditions: ATCC 25922
# Method in brief: as §1
SMILES,Hemolysis at 0.2 g/L [1] [%],Escherichia coli MCR-1 Af 45 MIC [2] [µg/mL],Klebsiella pneumoniae SSI3010 MIC [3] [µg/mL],Escherichia coli ATCC 25922 MIC [4] [µg/mL]
"CC[C@H](C)[C@@H]1NC(=O)[C@@H](NC(=O)[C@H](Cc2ccc(O)cc2)NC(=O)[C@@H](NC(=O)[C@@H](NC(=O)[C@@H]2C[C@@H](O)CN2C(=O)[C@@H](N)C(C)C)[C@@H](C)CC)[C@@H](C)O)C(C)(C)SSC[C@@H](C(=O)N[C@@H](CCN)C(=O)N[C@@H](CO)C(=O)N[C@@H](Cc2ccc(O)cc2)C(=O)O)NC(=O)[C@H](CCCCN)NC(=O)[C@@H](CCN)NC(=O)[C@H]([C@@H](C)O)NC(=O)[C@H](CCN)NC(=O)[C@H](CCCNC(=N)N)NC1=O [Example 99, Val-Hyp-Ile-Thr-Tyr-Pen-Ile-Arg-Dab-Thr-^DDab-Lys-Cys-Dab-Ser-Tyr] (HELM PEPTIDE1{V.[Hyp].I.T.Y.[Pen].I.R.[Dab].T.[NCC[C@@H](N[*:1])C(=O)[*:2]].K.C.[Dab].S.Y}$PEPTIDE1,PEPTIDE1,6:R3-13:R3$$$V2.0)",<1,0.125,0.25,0.125
"CC[C@H](C)[C@H](NC(=O)[C@@H](NC(=O)[C@@H]1C[C@@H](N)CN1C(=O)[C@@H](N)C(C)C)[C@@H](C)CC)C(=O)N[C@@H](Cc1ccc(O)cc1)C(=O)N[C@@H]1C(=O)N[C@@H](CC(N)=O)C(=O)N[C@@H](CCCNC(=N)N)C(=O)N[C@@H](CCN)C(=O)N[C@@H]([C@@H](C)O)C(=O)N[C@H](CCN)C(=O)N[C@@H](CCCCN)C(=O)N[C@H](C(=O)N[C@@H](CCN)C(=O)N[C@@H](CO)C(=O)N[C@@H](Cc2ccc(O)cc2)C(=O)O)CSSC1(C)C [Example 100, Val-Pro((4R)NH2)-Ile-Ile-Tyr-Pen-Asn-Arg-Dab-Thr-^DDab-Lys-Cys-Dab-Ser-Tyr] (HELM PEPTIDE1{V.[N[C@@H]1C[C@@H](C(=O)[*:2])N([*:1])C1].I.I.Y.[Pen].N.R.[Dab].T.[NCC[C@@H](N[*:1])C(=O)[*:2]].K.C.[Dab].S.Y}$PEPTIDE1,PEPTIDE1,6:R3-13:R3$$$V2.0)",<1,0.0625,0.25,0.25
"CC[C@H](C)[C@H](NC(=O)[C@@H](NC(=O)[C@@H]1C[C@@H](O)CN1C(=O)[C@@H](N)C(C)C)[C@@H](C)CC)C(=O)N[C@@H](Cc1ccc(O)cc1)C(=O)N[C@@H]1C(=O)N[C@@H](CC(N)=O)C(=O)N[C@@H](CCCNC(=N)N)C(=O)N[C@@H](CCN)C(=O)N[C@@H]([C@@H](C)O)C(=O)N[C@H](CCN)C(=O)N[C@@H](CO)C(=O)N[C@H](C(=O)N[C@@H](CCN)C(=O)N[C@@H](CCCNC(=N)N)C(=O)N[C@@H](Cc2ccc(O)cc2)C(=O)O)CSSC1(C)C [Example 101, Val-Hyp-Ile-Ile-Tyr-Pen-Asn-Arg-Dab-Thr-^DDab-Cys-Dab-Arg-Tyr]",<1,0.125,0.25,0.125
"CC[C@H](C)[C@H](NC(=O)[C@@H]1C[C@@H](N)CN1C(=O)[C@@H](N)C(C)C)C(=O)N[C@H](C(=O)N[C@@H](Cc1ccc(O)cc1)C(=O)N[C@@H]1C(=O)N[C@@H](CC(N)=O)C(=O)N[C@@H](CCCNC(=N)N)C(=O)N[C@@H](CCN)C(=O)N[C@@H]([C@@H](C)O)C(=O)N[C@H](CCN)C(=O)N[C@@H](CCCNC(N)=O)C(=O)N[C@H](C(=O)N[C@@H](CCN)C(=O)N[C@@H](CO)C(=O)N[C@@H](Cc2ccc(O)cc2)C(=O)O)CSSC1(C)C)[C@@H](C)O [Example 102, Val-Pro((4R)NH2)-Ile-Thr-Tyr-Pen-Asn-Arg-Dab-Thr-^DDab-Cit-Cys-Dab-Ser-Tyr] (HELM PEPTIDE1{V.[N[C@@H]1C[C@@H](C(=O)[*:2])N([*:1])C1].I.T.Y.[Pen].N.R.[Dab].T.[NCC[C@@H](N[*:1])C(=O)[*:2]].[Cit].C.[Dab].S.Y}$PEPTIDE1,PEPTIDE1,6:R3-13:R3$$$V2.0)",<1,0.125,0.25,0.25
"CC[C@H](C)[C@H](NC(=O)[C@@H]1C[C@@H](N)CN1C(=O)[C@@H](N)C(C)C)C(=O)N[C@H](C(=O)N[C@@H](Cc1ccc(O)cc1)C(=O)N[C@@H]1C(=O)N[C@@H](CC(N)=O)C(=O)N[C@@H](CCCNC(=N)N)C(=O)N[C@@H](CCN)C(=O)N[C@@H]([C@@H](C)O)C(=O)N[C@H](CCN)C(=O)N[C@@H](CCCCN)C(=O)N[C@H](C(=O)N[C@@H](CO)C(=O)N[C@@H](CO)C(=O)N[C@@H](Cc2ccc(O)cc2)C(=O)O)CSSC1(C)C)[C@@H](C)O [Example 103, Val-Pro((4R)NH2)-Ile-Thr-Tyr-Pen-Asn-Arg-Dab-Thr-^DDab-Lys-Cys-Ser-Ser-Tyr] (HELM PEPTIDE1{V.[N[C@@H]1C[C@@H](C(=O)[*:2])N([*:1])C1].I.T.Y.[Pen].N.R.[Dab].T.[NCC[C@@H](N[*:1])C(=O)[*:2]].K.C.S.S.Y}$PEPTIDE1,PEPTIDE1,6:R3-13:R3$$$V2.0)",<1,0.125,0.5,0.5
"CC[C@H](C)[C@@H]1NC(=O)[C@@H](NC(=O)[C@H](Cc2ccc(O)cc2)NC(=O)[C@@H](NC(=O)[C@@H](NC(=O)[C@@H]2C[C@@H](O)CN2C(=O)[C@@H](N)C(C)C)[C@@H](C)CC)[C@@H](C)O)C(C)(C)SSC[C@@H](C(=O)N[C@@H](CO)C(=O)N[C@@H](CCCNC(=N)N)C(=O)N[C@@H](Cc2ccc(O)cc2)C(=O)O)NC(=O)[C@H](CCCCN)NC(=O)[C@@H](CCN)NC(=O)[C@H]([C@@H](C)O)NC(=O)[C@H](CCN)NC(=O)[C@H](CCCNC(=N)N)NC1=O [Example 104, Val-Hyp-Ile-Thr-Tyr-Pen-Ile-Arg-Dab-Thr-^DDab-Lys-Cys-Ser-Arg-Tyr] (HELM PEPTIDE1{V.[Hyp].I.T.Y.[Pen].I.R.[Dab].T.[NCC[C@@H](N[*:1])C(=O)[*:2]].K.C.S.R.Y}$PEPTIDE1,PEPTIDE1,6:R3-13:R3$$$V2.0)",<1,0.125,0.25,0.125
"CC[C@H](C)[C@H](NC(=O)[C@@H](NC(=O)[C@@H]1C[C@@H](O)CN1C(=O)[C@@H](N)C(C)C)[C@@H](C)CC)C(=O)N[C@@H](Cc1ccc(O)cc1)C(=O)N[C@@H]1C(=O)N[C@@H](CC(N)=O)C(=O)N[C@@H](CCCNC(=N)N)C(=O)N[C@@H](CCN)C(=O)N[C@@H]([C@@H](C)O)C(=O)N[C@H](CCN)C(=O)N[C@@H](CCCCN)C(=O)N[C@H](C(=O)N[C@@H](CCN)C(=O)N[C@@H](CO)C(=O)N[C@@H](Cc2ccc(O)cc2)C(=O)O)CSSC1(C)C [Example 105, Val-Hyp-Ile-Ile-Tyr-Pen-Asn-Arg-Dab-Thr-^DDab-Lys-Cys-Dab-Ser-Tyr] (HELM PEPTIDE1{V.[Hyp].I.I.Y.[Pen].N.R.[Dab].T.[NCC[C@@H](N[*:1])C(=O)[*:2]].K.C.[Dab].S.Y}$PEPTIDE1,PEPTIDE1,6:R3-13:R3$$$V2.0)",<1,0.125,0.5,0.25
"CC[C@H](C)[C@H](NC(=O)[C@@H](NC(=O)[C@@H]1C[C@@H](N)CN1C(=O)[C@@H](N)C(C)C)[C@@H](C)CC)C(=O)N[C@@H](Cc1ccc(O)cc1)C(=O)N[C@@H]1C(=O)N[C@@H](CC(N)=O)C(=O)N[C@@H](CCCNC(=N)N)C(=O)N[C@@H](CCN)C(=O)N[C@@H]([C@@H](C)O)C(=O)N[C@H](CCN)C(=O)N[C@@H](CCCNC(N)=O)C(=O)N[C@H](C(=O)N[C@@H](CCN)C(=O)N[C@@H](CO)C(=O)N[C@@H](Cc2ccc(O)cc2)C(=O)O)CSSC1(C)C [Example 106, Val-Pro((4R)NH2)-Ile-Ile-Tyr-Pen-Asn-Arg-Dab-Thr-^DDab-Cit-Cys-Dab-Ser-Tyr] (HELM PEPTIDE1{V.[N[C@@H]1C[C@@H](C(=O)[*:2])N([*:1])C1].I.I.Y.[Pen].N.R.[Dab].T.[NCC[C@@H](N[*:1])C(=O)[*:2]].[Cit].C.[Dab].S.Y}$PEPTIDE1,PEPTIDE1,6:R3-13:R3$$$V2.0)",<1,0.25,0.25,0.25
"CC[C@H](C)[C@H](NC(=O)[C@@H](NC(=O)[C@@H]1C[C@@H](O)CN1C(=O)[C@@H](N)C(C)C)[C@@H](C)CC)C(=O)N[C@@H](Cc1ccc(O)cc1)C(=O)N[C@@H]1C(=O)N[C@@H](CC(N)=O)C(=O)N[C@@H](CCCNC(=N)N)C(=O)N[C@@H](CCN)C(=O)N[C@@H]([C@@H](C)O)C(=O)N[C@H](CCN)C(=O)N[C@@H](CCCCN)C(=O)N[C@H](C(=O)N[C@@H](CO)C(=O)N[C@@H](CCCNC(=N)N)C(=O)N[C@@H](Cc2ccc(O)cc2)C(=O)O)CSSC1(C)C [Example 107, Val-Hyp-Ile-Ile-Tyr-Pen-Asn-Arg-Dab-Thr-^DDab-Lys-Cys-Ser-Arg-Tyr] (HELM PEPTIDE1{V.[Hyp].I.I.Y.[Pen].N.R.[Dab].T.[NCC[C@@H](N[*:1])C(=O)[*:2]].K.C.S.R.Y}$PEPTIDE1,PEPTIDE1,6:R3-13:R3$$$V2.0)",<1,0.25,0.5,0.25
